Measurements: publication PMC4420518 (Protein Science : A Publication of the Protein Society, 2015)

How the values were obtained:
[1] = test system: TpsB4-P1 (TpsB4 POTRA1 domain); assay: 1H-15N HSQC NMR titration of 15N-labelled TpsB4-P1 with peptides; type: binding, P. aeruginosa
[2] = target: TpsB4 POTRA1 domain (TpsB4-P1; residues 42-121) (P. aeruginosa); assay: NMR titration

Row | Substance | binding to 15N-labelled TpsB4-P1 (CSPs in 1H-15N HSQC) ([1]; 200 μM TpsB4-P1, synthetic peptides, free N- and C-termini) | exchange regime of interaction with TpsB4 POTRA1 ([1]; NMR timescale) | Kd [2]
1 | QVFLVNPNGVLFGRGAQ [CupB5^80–96] | interacts with TpsB4‐P1 with a virtually identical pattern of CSPs | fast exchange | 
2 | TpsA4^79-95 peptide |  |  | 1.49 mM
